Results from US20260083851A1 (AVILAR THERAPEUTICS, INC., priority 2022, published 2026).

Target: T1, ASGP receptor (biotinylated ASGPR) (Homo sapiens, UniProt P07306)
T1 construct: biotin (biotinylated)
T1 sequence (P07306 1-291): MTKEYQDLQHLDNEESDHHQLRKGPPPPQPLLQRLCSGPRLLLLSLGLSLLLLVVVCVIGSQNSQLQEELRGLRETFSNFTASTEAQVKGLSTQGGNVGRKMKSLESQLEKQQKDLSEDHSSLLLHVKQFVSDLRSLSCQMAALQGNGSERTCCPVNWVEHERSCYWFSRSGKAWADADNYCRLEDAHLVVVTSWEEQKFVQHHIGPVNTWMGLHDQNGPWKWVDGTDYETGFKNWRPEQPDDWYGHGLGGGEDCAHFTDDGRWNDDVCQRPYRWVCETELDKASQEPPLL
Type: binding
Conditions: SPR, Biacore 8K, 25° C.; Table 1C; read-out: ASGPR KD

Compound: O[C@@H]1[C@H](O)[C@@H](Oc2cccc(C(F)(F)F)n2)CO[C@@H]1COc1ccccc1 [A234, (2R,3R,4S,5S)-2-(phenoxymethyl)-5-((6-(trifluoromethyl)pyridin-2-yl)oxy)tetrahydro-2H-pyran-3,4-diol]
- Kd: < 10 µM

Compound: O[C@@H]1[C@H](O)[C@@H](Oc2cccc(C(F)(F)F)n2)CO[C@@H]1COc1ncccn1 [A235, (2R,3R,4S,5S)-2-((pyrimidin-2-yloxy)methyl)-5-((6-(trifluoromethyl)pyridin-2-yl)oxy)tetrahydro-2H-pyran-3,4-diol]
- Kd: < 10 µM

Compound: O[C@@H]1[C@H](O)[C@@H](Nc2cccc(C(F)(F)F)n2)CO[C@@H]1COc1ccc(Br)cc1 [A236, (2R,3R,4R,5S)-2-((4-bromophenoxy)methyl)-5-((6-(trifluoromethyl)pyridin-2-yl)amino)tetrahydro-2H-pyran-3,4-diol]
- Kd: < 10 µM

Compound: OC[C@H]1O[C@H](Oc2ccc(N3CCNCC3)cc2)[C@H](Oc2cccc(C(F)(F)F)n2)[C@@H](O)[C@H]1O [A237]
- Kd: < 10 µM

Compound: O[C@@H]1[C@H](O)[C@@H](Oc2cccc(C(F)(F)F)n2)CO[C@@H]1COc1ccc(Br)cc1 [A238]
- Kd: < 10 µM

Compound: O[C@@H]1[C@H](O)[C@@H](Nc2cccc(C(F)(F)F)n2)CO[C@@H]1COc1cnccn1 [A239]
- Kd: < 10 µM

Compound: O[C@@H]1[C@H](O)[C@@H](Nc2cccc(C(F)(F)F)n2)CO[C@@H]1CN1CCCC1 [A240]
- Kd: < 10 µM

Compound: O[C@@H]1[C@H](O)[C@@H](Nc2cccc(C(F)(F)F)n2)CO[C@@H]1CN1CCCCC1 [A241]
- Kd: < 10 µM

Compound: O[C@@H]1[C@H](O)[C@@H](Oc2cccc(C(F)(F)F)n2)CO[C@@H]1CN1CCN(c2ccccc2)CC1 [A242]
- Kd: < 10 µM

Compound: O[C@@H]1[C@H](O)[C@@H](Nc2cccc(C(F)(F)F)n2)CO[C@@H]1COc1ccccc1 [A243]
- Kd: < 10 µM

Compound: O=C(O)c1cnc(OC[C@H]2OC[C@H](Oc3cccc(C(F)(F)F)n3)[C@@H](O)[C@H]2O)cn1 [A244]
- Kd: < 10 µM

Compound: O[C@@H]1[C@H](O)[C@@H](Oc2cccc(C(F)(F)F)n2)CO[C@@H]1CN1CCC1 [A245]
- Kd: < 10 µM

Compound: O=C(O)c1ccc(OC[C@H]2OC[C@H](Oc3cccc(C(F)(F)F)n3)[C@@H](O)[C@H]2O)nn1 [A246]
- Kd: < 10 µM

Compound: O[C@@H]1[C@H](O)[C@@H](Oc2cccc(C(F)(F)F)n2)CO[C@@H]1COc1ccc(N2CCNCC2)c(F)c1 [A247]
- Kd: < 10 µM

Compound: CN1CCN(C[C@H]2OC[C@H](Oc3cccc(C(F)(F)F)n3)[C@@H](O)[C@H]2O)CC1 [A249]
- Kd: < 10 µM

Compound: OC[C@H]1O[C@H](c2ccc(N3CCNCC3)cc2)[C@H](Oc2cccc(C(F)(F)F)n2)[C@@H](O)[C@H]1O [A250]
- Kd: < 10 µM

Compound: O=C(O)c1c(F)cc(CN2CCN(C[C@H]3OC[C@H](Nc4cncc(C(F)(F)F)n4)[C@@H](O)[C@H]3O)CC2)cc1F [A251]
- Kd: < 10 µM

Compound: C[C@H]1O[C@H](c2ccccc2)[C@H](Oc2cccc(C(F)(F)F)n2)[C@@H](O)[C@H]1O [A252]
- Kd: < 10 µM

Compound: O[C@@H]1[C@H](O)[C@@H](Oc2cccc(C(F)(F)F)n2)CO[C@@H]1CN1CCc2ccccc2C1 [A254]
- Kd: < 10 µM

Compound: O=C(O)c1ccc(-c2ccc(OC[C@H]3OC[C@H](Oc4cccc(C(F)(F)F)n4)[C@@H](O)[C@H]3O)nn2)cc1 [A255]
- Kd: < 10 µM

Compound: CC(C)(C)OC(=O)N1CC(Cc2ccc(OC[C@H]3OC[C@H](Oc4cccc(C(F)(F)F)n4)[C@@H](O)[C@H]3O)nn2)C1 [A256]
- Kd: < 10 µM

Compound: O[C@@H]1[C@H](O)[C@@H](Oc2cccc(C(F)(F)F)n2)CO[C@@H]1CN1CCN(c2ccc(Br)nn2)CC1 [A257]
- Kd: < 10 µM

Compound: O=C1CCCN1C[C@H]1OC[C@H](Oc2cccc(C(F)(F)F)n2)[C@@H](O)[C@H]1O [A258]
- Kd: < 10 µM

Compound: O[C@@H]1[C@H](O)[C@@H](Oc2cccc(C(F)(F)F)n2)CO[C@@H]1CN1CCN(c2ccccn2)CC1 [A259]
- Kd: < 10 µM

Compound: CC(C)(C)OC(=O)N1CC2CN(C[C@H]3OC[C@H](Oc4cccc(C(F)(F)F)n4)[C@@H](O)[C@H]3O)CC21 (stereo partly shown) [A261]
- Kd: < 10 µM

Compound: CC(C)(C)OC(=O)N1CC2CN(C[C@H]3OC[C@H](Oc4cccc(C(F)(F)F)n4)[C@@H](O)[C@H]3O)CC2C1 (stereo partly shown) [A262]
- Kd: < 10 µM

Compound: O=C1c2ncccc2CN1C[C@H]1OC[C@H](Oc2cccc(C(F)(F)F)n2)[C@@H](O)[C@H]1O [A263]
- Kd: < 10 µM

Compound: O[C@@H]1[C@H](O)[C@@H](Oc2cccc(C(F)(F)F)n2)CO[C@@H]1CN1CCN(c2cccnn2)CC1 [A264]
- Kd: < 10 µM

Compound: O=C1c2ccccc2CN1C[C@H]1OC[C@H](Oc2cccc(C(F)(F)F)n2)[C@@H](O)[C@H]1O [A265]
- Kd: < 10 µM

Compound: CC(C)(C)OC(=O)N1CCC2(CC1)CN(C[C@H]1OC[C@H](Oc3cccc(C(F)(F)F)n3)[C@@H](O)[C@H]1O)C2 [A267]
- Kd: < 10 µM

Compound: O[C@@H]1[C@H](O)[C@@H](Nc2cccc(C(F)(F)F)n2)CO[C@@H]1CN1CCc2ccccc2C1 [A268]
- Kd: < 10 µM

Compound: O[C@@H]1[C@@H](Nc2cncc(C(F)(F)F)n2)[C@H]2OC[C@](COc3cnccn3)(O2)[C@@H]1O [A269]
- Kd: < 10 µM

Compound: O[C@@H]1[C@H](O)[C@@H](Oc2cccc(C(F)(F)F)n2)CO[C@@H]1CN1CCN(c2ncccn2)CC1 [A270]
- Kd: < 10 µM

Compound: CC(C)(C)OC(=O)N1CCC2CN(C[C@H]3OC[C@H](Oc4cccc(C(F)(F)F)n4)[C@@H](O)[C@H]3O)CC2C1 (stereo partly shown) [A271]
- Kd: < 10 µM

Compound: O=C1c2c(F)cccc2CN1C[C@H]1OC[C@H](Oc2cccc(C(F)(F)F)n2)[C@@H](O)[C@H]1O [A272]
- Kd: < 10 µM

Compound: O=C1c2ccc(F)cc2CN1C[C@H]1OC[C@H](Oc2cccc(C(F)(F)F)n2)[C@@H](O)[C@H]1O [A273]
- Kd: < 10 µM

Compound: O[C@@H]1[C@H](O)[C@@H](Oc2cccc(C(F)(F)F)n2)CO[C@@H]1CN1Cc2ccccc2C1 [A274]
- Kd: < 10 µM

Compound: O[C@@H]1[C@H](O)[C@@H](Oc2cccc(C(F)(F)F)n2)CO[C@@H]1CN1CCN(c2cccnc2)CC1 [A275]
- Kd: < 10 µM

Compound: O=C(O)c1ccc(N2CCN(C[C@H]3OC[C@H](Oc4cccc(C(F)(F)F)n4)[C@@H](O)[C@H]3O)CC2)nn1 [A276]
- Kd: < 10 µM

Compound: O=C1c2ccccc2CN1C[C@H]1OC[C@H](Nc2cccc(C(F)(F)F)n2)[C@@H](O)[C@H]1O [A277]
- Kd: < 10 µM

Compound: O[C@@H]1[C@H](O)[C@@H](Nc2cccc(C(F)(F)F)n2)CO[C@@H]1CN1CCC1 [A279]
- Kd: < 10 µM

Compound: CC(C)(C)OC(=O)N1CCC(Cc2ccc(OC[C@H]3OC[C@H](Oc4cccc(C(F)(F)F)n4)[C@@H](O)[C@H]3O)nn2)CC1 [A280]
- Kd: < 10 µM

Compound: O=C(O)c1ccc(OC[C@@]23CO[C@@H](O2)[C@H](Nc2cncc(C(F)(F)F)n2)[C@@H](O)[C@H]3O)nn1 [A281]
- Kd: < 10 µM

Compound: O[C@@H]1[C@H](O)[C@@H](Oc2cccc(C(F)(F)F)n2)CO[C@@H]1CN1CCN(c2ccncn2)CC1 [A284]
- Kd: < 10 µM

Compound: O=C1CCCN1C[C@H]1OC[C@H](Nc2cccc(C(F)(F)F)n2)[C@@H](O)[C@H]1O [A285]
- Kd: < 10 µM

Compound: C[C@H]1O[C@H](C#CCO)[C@H](Oc2cccc(C(F)(F)F)n2)[C@@H](O)[C@H]1O [A286]
- Kd: < 10 µM

Compound: O[C@@H]1[C@H](O)[C@@H](Oc2cccc(C(F)(F)F)n2)CO[C@@H]1COc1ccccn1 [A287]
- Kd: < 10 µM

Compound: O[C@@H]1[C@H](O)[C@@H](Oc2cccc(C(F)(F)F)n2)CO[C@@H]1COc1ccnnc1 [A288]
- Kd: < 10 µM

Compound: O[C@@H]1[C@H](O)[C@@H](Oc2cccc(C(F)(F)F)n2)CO[C@@H]1COc1cncnc1 [A289]
- Kd: < 10 µM

Compound: O=C1c2occc2CN1C[C@H]1OC[C@H](Oc2cccc(C(F)(F)F)n2)[C@@H](O)[C@H]1O [A290]
- Kd: < 10 µM

Compound: O=C1c2sccc2CN1C[C@H]1OC[C@H](Oc2cccc(C(F)(F)F)n2)[C@@H](O)[C@H]1O [A291]
- Kd: < 10 µM

Compound: O[C@@H]1[C@H](O)[C@@H](Oc2cccc(C(F)(F)F)n2)CO[C@@H]1COc1ccncc1 [A292]
- Kd: < 10 µM

Compound: O[C@@H]1[C@H](O)[C@@H](Oc2cccc(C(F)(F)F)n2)CO[C@@H]1CN1CCN(c2cncnc2)CC1 [A293]
- Kd: < 10 µM

Compound: CC(C)(C)OC(=O)N1CCC(Cc2ccc(OC[C@H]3OC[C@H](Oc4cccc(C(F)(F)F)n4)[C@@H](O)[C@H]3O)nn2)C1 (stereo partly shown) [A294]
- Kd: < 10 µM

Compound: O[C@@H]1[C@@H](Nc2cccc(C(F)(F)F)n2)[C@H]2OC[C@](COc3cccnn3)(O2)[C@@H]1O [A295]
- Kd: < 10 µM

Compound: O[C@@H]1[C@@H](Nc2cccc(C(F)(F)F)n2)[C@H]2OC[C@](COc3cnccn3)(O2)[C@@H]1O [A296]
- Kd: < 10 µM

Compound: O=C(O)COCCOCC(=O)NC[C@H]1OC[C@H](Oc2cccc(C(F)(F)F)n2)[C@@H](O)[C@H]1O [A298]
- Kd: < 10 µM

Compound: O=C(c1ccc(Cl)cc1)[C@H]1OC[C@H](Oc2cccc(C(F)(F)F)n2)[C@@H](O)[C@H]1O [A299]
- Kd: < 10 µM

Compound: O[C@@H]1[C@H](O)[C@@H](Oc2cccc(C(F)(F)F)n2)CO[C@@H]1COc1cccnc1 [A301]
- Kd: < 10 µM

Compound: CN1CC2CN(C[C@H]3OC[C@H](Oc4cccc(C(F)(F)F)n4)[C@@H](O)[C@H]3O)CCN2C1=O (stereo partly shown) [A302]
- Kd: < 10 µM

Compound: C[C@H]1O[C@@H](c2ccc(N3CCNCC3)cc2)[C@H](Oc2cccc(C(F)(F)F)n2)[C@@H](O)[C@H]1O [A303]
- Kd: < 10 µM

Compound: O[C@@H]1[C@H](O)[C@@H](Oc2cccc(C(F)(F)F)n2)CO[C@@H]1CSc1ccccc1 [A304]
- Kd: < 10 µM

Compound: O=C(O)COCCOCC(=O)NC[C@@]12CO[C@@H](O1)[C@H](Nc1cncc(C(F)(F)F)n1)[C@@H](O)[C@H]2O [A305]
- Kd: < 10 µM

Compound: O[C@@H]1[C@@H](Oc2cccc(C(F)(F)F)n2)COC(C(F)(F)c2ccc(Cl)cc2)[C@@H]1O (stereo partly shown) [A306]
- Kd: < 10 µM

Compound: O[C@@H]1[C@H](O)[C@@H](Oc2cccc(C(F)(F)F)n2)CO[C@@H]1CSc1ccccn1 [A307]
- Kd: < 10 µM

Compound: O[C@@H]1[C@@H](Oc2cccc(C(F)(F)F)n2)COC(C(F)c2ccc(Cl)cc2)[C@@H]1O (stereo partly shown) [A308]
- Kd: < 10 µM

Compound: O=C(O)c1cnc(OC[C@H]2OC[C@H](Nc3cccc(C(F)(F)F)n3)[C@@H](O)[C@H]2O)cn1 [A309]
- Kd: < 10 µM
